Where two headings read alike, the source gives them in different places.
Test system: SARS-CoV-2 strain USA-WA1/2020
Assay: microbe, parasite or virus in culture
Format: cell-based
Conditions: Severe acute respiratory syndrome coronavirus 2, HeLa-ACE2, 24 h, HeLa-ACE2 cells, SARS-CoV-2 infection, 24 h, read-out: EC50, uM (Hela)

Compound `CC(C)C[C@H](NC(=O)C(=O)NC1CCCC1)C(=O)N[C@@H](C[C@@H]1CCNC1=O)C(=O)COc1c(F)c(F)cc(F)c1F` [Compound 102, N1-cyclopentyl-N2-((S)-4-methyl-1-oxo-1-(((S)-3-oxo-1-((S)-2-oxopyrrolidin-3-yl)-4-(2,3,5,6-tetrafluorophenoxy)butan-2-yl)amino)pentan-2-yl)oxalamide] has an EC50 (class symbols) of 0.05 to 0.2 µM.
In the case of `CC(C)C(=O)N1CC2(CC2)C[C@H]1C(=O)N[C@@H](C[C@@H]1CCNC1=O)C(=O)COC(F)(F)F` [Compound 704, (S)-5-isobutyryl-N-((S)-3-oxo-1-((S)-2-oxopyrrolidin-3-yl)-4-(trifluoromethoxy)butan-2-yl)-5-azaspiro[2.4]heptane-6-carboxamide], the EC50 is reported as 0.05 to 0.2 µM.
Compound `CC(C)(NC(=O)C(=O)N1Cc2ccccc2C[C@H]1C(=O)N[C@@H](C[C@@H]1CCNC1=O)C(=O)COC(F)(F)F)C(F)(F)F` [Compound 472, (S)-N-((S)-3-oxo-1-((S)-2-oxopyrrolidin-3-yl)-4-(trifluoromethoxy)butan-2-yl)-2-(2-oxo-2-((1,1,1-trifluoro-2-methylpropan-2-yl)amino)acetyl)-1,2,3,4-tetrahydro-isoquinoline-3-carboxamide] has an EC50 of 0.05 to 0.2 µM.
`CC(C)C[C@H](NC(=O)c1cc2ncccc2[nH]1)C(=O)N[C@@H](C[C@@H]1CCNC1=O)C(=O)COC(F)(F)F` [Compound 248, N-((S)-4-methyl-1-oxo-1-(((S)-3-oxo-1-((S)-2-oxopyrrolidin-3-yl)-4-(trifluoromethoxy)butan-2-yl)amino)pentan-2-yl)-1H-pyrrolo[3,2-b]pyridine-2-carboxamide] showed an EC50 (class symbols) of 0.2 to 0.5 µM.
In the case of `CC[C@@H](N)C(=O)N1C[C@H]2[C@@H]([C@H]1C(=O)N[C@@H](C[C@@H]1CCNC1=O)C(=O)COC(F)(F)F)C2(C)C` [Compound 439, (1R,2S,5S)-3-((R)-2-aminobutanoyl)-6,6-dimethyl-N-((S)-3-oxo-1-((S)-2-oxopyrrolidin-3-yl)-4-(trifluoromethoxy)butan-2-yl)-3-azabicyclo[3.1.0]-hexane-2-carboxamide], the EC50 is reported as 0.2 to 0.5 µM.
`O=C1NCC[C@H]1C[C@H](NC(=O)[C@@H]1[C@H]2CCC[C@H]2CN1C(=O)[C@@H](O)c1ccccc1)C(=O)COC(F)(F)F` [Compound 417, (1S,3aR,6aS)-2-((S)-2-hydroxy-2-phenylacetyl)-N-((S)-3-oxo-1-((S)-2-oxopyrrolidin-3-yl)-4-(trifluoromethoxy)butan-2-yl)octahydrocyclo-penta[c]pyrrole-1-carboxamide] gave an EC50 of less than 0.05 µM.
With `CC1(NC(=O)C(=O)N[C@@H](Cc2cccc(F)c2)C(=O)N[C@@H](C[C@@H]2CCNC2=O)C(=O)COC(F)(F)F)CC1` [Compound 215, N1-((S)-3-(3-fluorophenyl)-1-oxo-1-(((S)-3-oxo-1-((S)-2-oxopyrrolidin-3-yl)-4-(trifluoromethoxy)butan-2-yl)amino)propan-2-yl)-N2-(1-methylcyclopropyl)-oxalamide] the EC50 (class symbols) was less than 0.05 µM.
`CO[C@@H]1C[C@@H](C(=O)N[C@@H](C[C@@H]2CCNC2=O)C(=O)COC(F)(F)F)N(C(=O)C(=O)Nc2ccccc2F)C1` [Compound 258, (2S,4R)-1-(2-((2-fluorophenyl)amino)-2-oxoacetyl)-4-methoxy-N-((S)-3-oxo-1-((S)-2-oxopyrrolidin-3-yl)-4-(trifluoromethoxy)butan-2-yl)pyrrolidine-2-carboxamide] was tested, and the EC50 (bound printed in cell) was greater than 1 µM.
In the case of `CC(C)C[C@H](NS(=O)(=O)c1ccc2c(ccn2C)c1)C(=O)N[C@@H](C[C@@H]1CCNC1=O)C(=O)COc1c(F)c(F)cc(F)c1F` [Compound 765, (S)-4-methyl-2-((l-methyl-1H-indole)-5-sulfonamido)-N-((S)-3-oxo-1-((S)-2-oxopyrrolidin-3-yl)-4-(2,3,5,6-tetrafluorophenoxy)butan-2-yl)pentanamide], the EC50 is reported as less than 0.05 µM.
`CC(C)C[C@H](NC(=O)C(=O)Nc1cccc(Cl)c1)C(=O)N[C@@H](C[C@@H]1CCNC1=O)C(=O)COc1c(F)c(F)cc(F)c1F` [Compound 52, N1-(3-chlorophenyl)-N2-((S)-4-methyl-1-oxo-1-(((S)-3-oxo-1-((S)-2-oxopyrrolidin-3-yl)-4-(2,3,5,6-tetrafluorophenoxy)butan-2-yl)amino)pentan-2-yl)oxalamide] showed an EC50 (class symbols) of 0.05 to 0.2 µM.
In the case of `COc1cccc2[nH]c(C(=O)N[C@@H](CC(C)C)C(=O)N[C@@H](C[C@@H]3CCNC3=O)C(=O)COC(F)F)cc12` [Compound 198, N—((S)-1-(((S)-4-(difluoromethoxy)-3-oxo-1-((S)-2-oxopyrrolidin-3-yl)butan-2-yl)amino)-4-methyl-1-oxopentan-2-yl)-4-methoxy-1H-indole-2-carboxamide], the EC50 (class symbols) is reported as 0.2 to 0.5 µM.
`C[C@@H]1CN(C(=O)C(=O)NC(C)(C)C(F)(F)F)C[C@H]1C(=O)N[C@@H](C[C@@H]1CCNC1=O)C(=O)COC(F)(F)F` [Compound 293, (3S,4S)-4-methyl-N-((S)-3-oxo-1-((S)-2-oxopyrrolidin-3-yl)-4-(trifluoromethoxy)butan-2-yl)-1-(2-oxo-2-((1,1,1-trifluoro-2-methylpropan-2-yl)amino)acetyl)-pyrrolidine-3-carboxamide] gave an EC50 (bound printed in cell) greater than 1 µM.
`CC(C)(C)[C@H](NC(=O)[C@H]1CCCO1)C(=O)N1C[C@H]2[C@@H]([C@H]1C(=O)N[C@@H](C[C@@H]1CCNC1=O)C(=O)COC(F)(F)F)C2(C)C` [Compound 290, (1R,2S,5S)-3-((S)-3,3-dimethyl-2-((R)-tetrahydrofuran-2-carboxamido)-butanoyl)-6,6-dimethyl-N-((S)-3-oxo-1-((S)-2-oxopyrrolidin-3-yl)-4-(trifluoromethoxy)butan-2-yl)-3-azabicyclo-[3.1.0]hexane-2-carboxamide] was tested, and the EC50 (class symbols) was 0.2 to 0.5 µM.
Work on `Cc1ccccc1NC(=O)C(=O)N[C@@H](Cc1ccccc1)C(=O)N[C@@H](C[C@@H]1CCNC1=O)C(=O)COc1c(F)c(F)cc(F)c1F` [Compound 106, N1-((S)-1-oxo-1-(((S)-3-oxo-1-((S)-2-oxopyrrolidin-3-yl)-4-(2,3,5,6-tetrafluorophenoxy)butan-2-yl)amino)-3-phenylpropan-2-yl)-N2-(o-tolyl)oxalamide] yielded an EC50 (class symbols) of less than 0.05 µM.
For `CC(C)C[C@H](NC(=O)C(=O)NCc1ccccc1)C(=O)N[C@@H](C[C@@H]1CCNC1=O)C(=O)COc1c(F)c(F)cc(F)c1F` [Compound 42, N1-benzyl-N2-((S)-4-methyl-1-oxo-1-(((S)-3-oxo-1-((S)-2-oxopyrrolidin-3-yl)-4-(2,3,5,6-tetrafluoro-phenoxy)butan-2-yl)amino)pentan-2-yl)oxalamide], the EC50 (class symbols) was 0.05 to 0.2 µM.
In the case of `CC1(NC(=O)C(=O)N[C@@H](CC2CC2)C(=O)N[C@@H](C[C@@H]2CCNC2=O)C(=O)COC(F)(F)F)CCOCC1` [Compound 222, N1-((S)-3-cyclopropyl-1-oxo-1-(((S)-3-oxo-1-((S)-2-oxopyrrolidin-3-yl)-4-(trifluoromethoxy)butan-2-yl)amino)propan-2-yl)-N2-(4-methyltetrahydro-2H-pyran-4-yl)oxalamide], the EC50 (class symbols) is reported as 0.05 to 0.2 µM.
`O=C(N[C@@H](CC1CCCCC1)C(=O)N[C@@H](C[C@@H]1CCNC1=O)C(=O)COc1c(F)c(F)cc(F)c1F)c1cc(-c2ccccc2F)on1` [Compound 110, N-((S)-3-cyclohexyl-1-oxo-1-(((S)-3-oxo-l-((S)-2-oxopyrrolidin-3-yl)-4-(2,3,5,6-tetrafluorophenoxy)butan-2-yl)amino)propan-2-yl)-5-(2-fluorophenyl)isoxazole-3-carboxamide] was tested, and the EC50 (class symbols) was 0.2 to 0.5 µM.
Compound `CC(C)(C)NC(=O)C(=O)N1CC2(CC1C(=O)N[C@@H](C[C@@H]1CCNC1=O)C(=O)COC(F)(F)F)CC(F)(F)C2` (stereo partly drawn) [Compound 508, 6-(2-(tert-butylamino)-2-oxoacetyl)-2,2-difluoro-N-((S)-3-oxo-1-((S)-2-oxopyrrolidin-3-yl)-4-(trifluoromethoxy)butan-2-yl)-6-azaspiro[3.4]octane-7-carboxamide] has an EC50 of 0.05 to 0.2 µM.
For `CNC(=O)C(=O)N[C@@H](Cc1cccc(F)c1)C(=O)N[C@@H](C[C@@H]1CCNC1=O)C(=O)COC(F)(F)F` [Compound 677, N1-((S)-3-(3-fluorophenyl)-1-oxo-1-(((S)-3-oxo-1-((S)-2-oxopyrrolidin-3-yl)-4-(trifluoromethoxy)butan-2-yl)amino)propan-2-yl)-N2-methyloxalamide], the EC50 was less than 0.05 µM.
`O=C1NCC[C@H]1C[C@H](NC(=O)[C@@H]1C[C@@H](c2ccccc2)CN1C(=O)[C@H](O)c1ccccc1)C(=O)COC(F)(F)F` [Compound 786, (2S,4S)-1-((R)-2-hydroxy-2-phenylacetyl)-N-((S)-3-oxo-1-((S)-2-oxopyrrolidin-3-yl)-4-(trifluoromethoxy)butan-2-yl)-4-phenylpyrrolidine-2-carboxamide] was tested, and the EC50 was 0.05 to 0.2 µM.
Work on `CC(C)C(F)(F)CC(=O)N1CC2(CC2)C[C@H]1C(=O)N[C@@H](C[C@@H]1CCNC1=O)C(=O)COC(F)(F)F` [Compound 712, (S)-5-(3,3-difluoro-4-methylpentanoyl)-N-((S)-3-oxo-1-((S)-2-oxopyrrolidin-3-yl)-4-(trifluoromethoxy)butan-2-yl)-5-azaspiro[2.4]heptane-6-carboxamide] yielded an EC50 of less than 0.05 µM.
`CC(C)C[C@H](NC(=O)c1cc2cnccc2[nH]1)C(=O)N[C@@H](C[C@@H]1CCNC1=O)C(=O)COC(F)(F)F` [Compound 200, N-((S)-4-methyl-1-oxo-1-(((S)-3-oxo-1-((S)-2-oxopyrrolidin-3-yl)-4-(trifluoromethoxy)butan-2-yl)amino)pentan-2-yl)-1H-pyrrolo[3,2-c]pyridine-2-carboxamide] was tested, and the EC50 (class symbols) was 0.2 to 0.5 µM.
Compound `CNS(=O)(=O)NCC(=O)N1CC2(CC2)C[C@H]1C(=O)N[C@@H](C[C@@H]1CCNC1=O)C(=O)COC(F)(F)F` [Compound 691, (S)-5-((N-methylsulfamoyl)glycyl)-N-((S)-3-oxo-1-((S)-2-oxopyrrolidin-3-yl)-4-(trifluoromethoxy)butan-2-yl)-5-azaspiro[2.4]heptane-6-carboxamide] has an EC50 of 0.5 to 1 µM.

Reference: US11708348B2, “Protease inhibitors for treatment of coronavirus infections” (The Scripps Research Institute, priority 2021, dated 2023)
